Consider 1 compound from patent US20140363830A1, “COMPOUNDS THAT MODULATE HSP90 ACTIVITY AND METHODS FOR IDENTIFYING SAME” (SYNTA PHARMACEUTICALS CORP., priority 2006, published 2014).

In one assay the test system is Hsp90 protein. Nature of the assay: Malachite Green assay of ATPase activity of Hsp90 protein. It is filed as biochemical. Conditions: 37° C., 4 hours. As for the experimental part: Hsp90 protein was obtained from Stressgen (Cat#SPP-770). Assay buffer: 100 mM Tris-HCl, Ph7.4, 20 mM KCl, 6 mM MgCl2. […] Malachite green reagent was added to the reaction. […] The plate was read by an ELISA reader with an absorbance at 620 nm.

In another assay the test system is Her2. Nature of the assay: Degradation of Her2 in BT-474 cells (Western blot). The note with it: overnight. It is filed as cell-based, Human. The method, then:
Human high-Her2 breast carcinoma BT474 (HTB-20), SK-BR-3 (HTB-30) and MCF-7 breast carcinoma (HTB-22) from American Type Culture Collection, VA, USA were grown in Dulbecco's modified Eagle's medium with 4 mM L-glutamine and antibiotics (100 IU/ml penicillin and 100 ug/ml streptomycine; GibcoBRL). To obtain exponential cell growth, cells were trypsinized, counted and seeded at a cell density of 0.5×10^6 cells/ml regularly, every 3 days. All experiments were performed on day 1 after cell passage.
After treatment, each cytoplasmic sample was prepared from 1×10^6 cells by incubation of cell lysis buffer (#9803, cell Signaling Technology) on ice for 10 minutes. The resulting supernatant used as the cytosol fractions were dissolved with sample buffer for SDS-PAGE and run on a SDS-PAGE gel, blotted onto a nitrocellulose membrane by using semi-dry transfer. Non-specific binding to nitrocellulose was blocked with 5% skim milk in TBS with 0.5% Tween at room temperature for 1 hour, then probed with anti-Her2/ErB2 mAb (rabbit IgG, #2242, Cell Signaling) and anti-Tubulin (T9026, Sigma) as housekeeping control protein. HRP-conjugated goat antirabbit IgG (H+L) and HRP-conjugated horse antimouse IgG (H+L) were used as secondary Ab (#7074, #7076, Cell Signaling) and LumiGLO reagent, 20× Peroxide (#7003, Cell Signaling) was used for visualization.

In the case of `Oc1ccc(-c2nnc(S)n2-c2cccc3ccccc23)c(O)c1` [Compound 108, 3-(2,4-Dihydroxy-phenyl)-4-(naphthalen-1-yl)-5-mercapto-[1,2,4]triazole], the results for the “ATPase activity of Hsp90” value in the assay with Hsp90 protein (4 μM) and with Hsp90 protein (40 μM) were “significant inhibition” and “even greater inhibition of ATPase activity of Hsp90 than geldanamycin”, respectively. In addition, the Her2 degradation entry in the assay with Her2 (0.5 μM) is listed as “partially degradated”; with Her2 (2 μM) it was “partially degradated”; in the assay on Her2 (5 μM) it was “almost completely degraded”.
